# Experimental data reported in EP2100593B1, “Ternary mixtures with increased collagen synthesis” (Symrise AG, priority 2008, dated 2009).
# Several values for one entry are separate records, joined by “and”; a condition that tells them apart may be missing. Equal values may be shown once.
# Tested on: Normal Humane Dermalen Fibroblasten (NHDF)
# Assay: Collagen synthesis stimulation in aged NHDF monolayer culture, Sirius Red staining (OD 540 nm)
# Format: cell-based, Human
# Details: 48 h incubation
# From the text: Verantwortlich für die Collagensynthese in der Dermis-Schicht der Haut sind Fibroblasten. Als Testsystem werden Normal Humane Dermalen Fibroblasten (NHDF) in einer so genannten Monolayer-Kultur in 96-Well-MTPs kultiviert, über einen definierten Zeitraum mit Testsubstanzen inkubiert und anschließend die Collagenzunahme […] über eine Färbemethode bestimmt.
# Das Assay-Prinzip basiert auf der histologischen, spezifischen Anfärbung von löslichem Collagen (vorwiegend Collagen Typ I und III) mit Hilfe des Farbstoffes Sirius Red (Direct Red 80). Sirius Red ist ein anionischer Farbstoff an dessen Seitenketten Sulphonsäuregruppen angelagert sind. Diese Sulphonsäuregruppen reagieren mit den Seitenkettengruppen der im Collagen vorwiegend vorkommenden Aminosäuren (Prolin, Hydroxyprolin, Lysin und Hydroxylysin), wobei eine intakte Collagenstruktur gegeben sein muss. [drawing 1]
# Als Vorlage für das Assay-Design dient die bei B.J.Walsh et al., Analytical Biochemistry 203, 187-190 (1992) beschriebene Vorgehensweise zur quantitativen Bestimmung von Collagen im 96-Well Maßstab.
# Die Collagensynthese steigernde Wirkung der Testsubstanzen wird an in vitro gealterten (>8. Passage) NHDF in 96-Well Mikrotiterplatten (2*10^4 Zellen pro Well) getestet. Für jedes Prüfmuster muss zuvor ein geeignetes Lösungsmittel ermittelt werden, in dem eine Stocklösung des Prüfmusters angesetzt wird. Die Inkubationslösungen der Testsubstanzen werden anschließend in mit 0,2% BSA supplementiertem DMEM hergestellt. Mögliche Lösungsmittel sollten in allen Verdünnung der Inkubationslösung max. 0,2 %ig vorliegen. Die maximale Einsatzkonzentration der Testsubstanzen resultiert aus den in der Zytotoxizitäts-Untersuchung (Resazurin-Assay an 3T3 Maus Fibroblasten) gewonnen IC20-Werten und ist auf 0,1*IC20 festgelegt.
# Nach einer 24h-igen Adaptionsphase der NHDF werden die Zellen für 48 h mit den Inkubationslösungen und entsprechenden Kontroll-Lösungen (Lösungsmittel und Blank) inkubiert (37°C, 5% CO2). […]
# [1] = Tabelle 2, Einsatzkonzentration 1.020 mg/ml
SMILES,"Collagensynthese Steigerung [%], bezogen auf unbehandelte Kontrolle (Tabelle 1, Einsatzkonzentration 0.362 mg/ml)","Collagensynthese Steigerung [%], bezogen auf unbehandelte Kontrolle [1] [%]"
"O=C1O[C@H]([C@@H](O)CO)C(O)=C1OP(=O)(O)O [Magnesium Ascorbylphosphat (Bio172), Magnesium Ascorbylphosphat]",66.97% and 67.44%,–
"O=C1O[C@H]([C@@H](O)CO)C([O-])=C1OP(=O)([O-])[O-].O=C1O[C@H]([C@@H](O)CO)C([O-])=C1OP(=O)([O-])[O-].[Mg+2].[Mg+2].[Mg+2] [Magnesium Ascorbylphosphat (Bio1300/1), Magnesium Ascorbylphosphat]",–,141.13
"O=C1O[C@H]([C@@H](O)CO)C([O-])=C1OP(=O)([O-])[O-].[Na+].[Na+].[Na+] [Natrium Ascorbylphosphat (Bio1586), Natrium Ascorbylphosphat]",–,144.57
